From patent US5939096A, “Liposome drug-loading method and composition” (priority 1997, dated 1999)
Like-named read-outs stand apart in the source and are kept apart here.

Legend:
[1] = not told, cited from earlier work
[2] = n-octanol/water, cited from earlier work
[3] = Loading and calcium ionophore (A23187)-promoted release of entrapped nalidixic acid
Description: (FIG. 8, solid line) and 60° C. (broken line), respectively.
The experiment was carried out at two different temperatures to investigate how changes in lipid phase (i.e., gel versus liquid-crystalline) affects the penetration of molecules into the bilayer. When the suspension was incubated at 25° C.
A calcium ionophore, A23187, (10 micromolar) was added at either t=700 s (25° C.; FIG. 8--solid line) or at 350 s (60° C.; FIG. 8--broken line), and the fluorescence was monitored over the course of the experiment.

[4] = Table II; cited from earlier work
[5] = Permeability coefficient in HPC/cholesterol extruded vesicles; details: not told, permeability coefficient P, 60/40 HPC/cholesterol extruded vesicles (Table II)
Description: ^e in 60/40 (mol/mol) HPC/cholesterolextruded vesicles, at 25°
^e in 60/40 (mol/mol) HPC/cholesterolextruded vesicles.

[6] = pH 9

5(6)-carboxyfluorescein
permeability coefficient P ([1]; pH 7): 8.1e-05 ×10⁻⁶ cm/s | permeability coefficient P ([1]; pH 8.2): 7.2e-07 ×10⁻⁶ cm/s | partition coefficient Kp ([2]; pH 6.9): 2.8 × 10^-3 | partition coefficient Kp ([2]; pH 8): 6.0 × 10^-5

CCn1cc(C(=O)O)c(=O)c2ccc(C)nc21 [nalidixic acid]
loading t1/2 ([3]; 25° C.): 84 s | loading t1/2 ([3]; 60° C.): 7 s | enhancement of loading rate ([3]; 60° C. versus 25° C.): one order of magnitude | pKa [4]: 6.13 | Papp ([5]; 25° C.): 0.014 ×10⁻⁶ cm/s | Papp ([5]; 60° C.): 0.17 ×10⁻⁶ cm/s

O=S(=O)(O)c1cc(O)c2ccc3c(S(=O)(=O)O)cc(S(=O)(=O)O)c4ccc1c2c34 [pyranine, 8-Hydroxypyrene-1,3,6-trisulfonic acid]
n-octanol/water partition coefficient Kp [6]: < 3 × 10^-5
